In PMC9254247, “Dual-sensitive antibacterial peptide nanoparticles prevent dental caries” (Theranostics, 2022):
Values after ≈ are worked out from the molar mass of the structure shown.

Assays:
[1] = tested on: S. mutans UA159 (ATCC 700610); experiment: Minimal inhibition concentration (MIC) determination, S. mutans UA159; format: cell-based; details: Streptococcus mutans, ATCC700610, BHI medium, 48 h, A600
Method: Minimal inhibition concentration (MIC) determination . S.mutans UA159 (ATCC 700610) and 20 clinical S.mutans strains were used. S.mutans UA159 was purchased from Shanghai Biofeng Biotechnology Co., LTD. These bacteria grown in brain heart infusion broth (BHI, Beijing Land Bridge, China) at 37 °C under anaerobic conditions.
Due to bacteria incubation under the condition of excessive acid for a long time will affect its vitality, therefore, pH 5.5 was choose as acidic condition for the MIC determination. Peptides and CHX were dissolved in BHI medium of different pHs (pH 5.5 and 7.0) using serial dilutions to obtain different diluted solutions. 2 µL of bacteria (1×10^7 CFU (colony forming units) in the logarithmic phase were added into each well of 96-well plates containing 200 µL different diluted solutions. Note that […]
the aggregate behavior of peptides. In order to avoid interfering with the MIC test, it is important to set up the control wells which only contain different concentrations of peptides in BHI medium of different pHs. The absorbance at 600 nm was detected with a microplate reader (Multiskan Spectrum, BioTek Inc., USA) after 48 h. The inhibition rate of drugs on bacteria was calculated based on the absorbance […]
The SYTO 9 / PI double staining and scanning electron microscopy (SEM) were also performed to evaluate the bacterial killing and bacterial membrane disruption. […]

S. mutans UA159 biofilm = experiment: S. mutans biofilm treatment in vitro on glass slides; format: cell-based, Streptococcus mutans; details: 55 μM; 10 min every 12 h, 3 times; confocal (Figure S10A-B)
Method: a concentration of 1×10^8 CFU/mL. pHly-1 NPs and CHX were diluted in BHI containing 1% sucrose to reach a series of concentration s and added to 96-well microplates (180 μL). Then, 2 μL S.mutans suspensions were seeded into 96-well microplates in the presence of different concentrations of pHly -1 NPs and CHX and the plate was incubated at 37 °C. After 24 h, the culture supernatants were gently discarded, and each well was rinsed three times with PBS (pH 7.0) to remove unattached bacteria. The bacterial viability was measured by methyl thiazol tetrazolium (MTT) assay. […] The MTT assay was performed to determined the minimum biofilm inhibition concentration (MBIC 50) by using the Microplate Reader at OD 490 nm 7. […]
S.mutans biofilm treatment in vitro, characterization and quantitative analysis.
Biofilms were formed on circular glass slides in a 24-well plate. […] B iofilms formed on glass slides were used for SEM, fluorescent staining and bacterial quantitative analyses. […]
For quantitative analysis9,10, after the treatment was finished, biofilms were removed from the glass slides and homogenized by water bath sonication followe d by probe sonication at an output of 7 W for 30 s (Branson Sonifier 150, Branson Ultrasonics). […] The effect of pHly- 1 NPs or CHX on biofilms was measured by counting the CFU of alive bacteria with agar plating after incubation for 48 h at 37 °C. […]

[H]/N=C(\N/C(=N/[H])NCCCCCCNC(=N)NC(=N)Nc1ccc(Cl)cc1)Nc1ccc(Cl)cc1 [CHX, chlorhexidine]
MIC ([1]; pH 5.5): 0.5 µM (≈ 0.253 µg/mL)
MIC ([1]; pH 7.0): 1 µM (≈ 0.505 µg/mL)
suppression effect on pre-formed biofilm (S. mutans UA159 biofilm): almost negligible
